From the Deep4Chem optical property database

Test: solvent given as SMILES

CCCCCCN1C(=O)c2cccc3cc(/N=C\c4cn(C)c5ccccc45)cc(c23)C1=O
fluorescence lifetime (in ClC(Cl)Cl): 11.4 ns

CCCCCCCCCCCCOc1ccc(C#Cc2ccc(C#Cc3ccc(OCCCCCCCCCCCC)c(OCCCCCCCCCCCC)c3)c3nc4c5ccccc5c5ccccc5c4nc23)cc1OCCCCCCCCCCCC
fluorescence lifetime (in C1CCOC1): 8.22 ns | fluorescence lifetime (in Cc1ccccc1): 7.13 ns | fluorescence lifetime (in ClCCl): 8.62 ns

CC(C)(C)c1ccc(C2=C(c3ccc(N(c4ccccc4)c4ccccc4)cc3)S(=O)(=O)c3c2sc(-c2ccc(N(c4ccccc4)c4ccccc4)cc2)c3-c2ccc(C(C)(C)C)cc2)cc1
fluorescence lifetime (in C1CCOC1): 3.03 ns

O=C1c2ccccc2-c2ccc(Nc3nc(Cl)nc(Cl)n3)c3cccc1c23
fluorescence lifetime (in CC#N): 6.6 ns | fluorescence lifetime (in CC(C)=O): 4.5 ns | fluorescence lifetime (in CC(C)O): 7.7 ns | fluorescence lifetime (in CCCCOCCCC): 0.5 ns | fluorescence lifetime (in CCOC(C)=O): 1.6 ns | fluorescence lifetime (in CCOCC): 0.7 ns | fluorescence lifetime (in CO): 7.6 ns | fluorescence lifetime (in Cc1ccccc1): 0.9 ns | fluorescence lifetime (in Clc1ccccc1): 2 ns | fluorescence lifetime (in N#Cc1ccccc1): 6 ns | fluorescence lifetime (in O=C1CCCCC1): 3.4 ns

CCOC(=O)c1cc(C)n2nc(-c3ccccc3)ccc12
fluorescence lifetime (in CCCCCC): 17.4 ns

C[SiH](C)c1cccc2ccccc12
fluorescence lifetime (in C1CCCCC1): 61 ns

COc1ccc(N2c3cc(OC)ccc3N=c3cc4c(cc32)=Nc2cc(C(C)(C)C)cc(C(C)(C)C)c2O4)cc1
fluorescence lifetime (in CCCCCC): 1.14 ns

CC[Si](CC)(CC)c1cc2ccc3cccc4ccc(c1C(=O)NC(C)(C)C)c2c34
fluorescence lifetime (in ClC(Cl)Cl): 7.63 ns

Cc1ccc(/C2=c3\cc/c(o3)=C(\c3ccc(C)cc3)c3ccc([nH]3)-c3ccc4n3[B-](F)(F)[N+]3=C(C=CC3=C4c3ccco3)c3ccc2[nH]3)cc1
fluorescence lifetime (in ClC(Cl)Cl): 4.1 ns

Cc1csc(C)c1C1=C(c2c(C)sc(-c3ccc(-c4nc(-c5ccccc5)c(-c5ccccc5)[nH]4)cc3)c2C)C(F)(F)C(F)(F)C1(F)F
fluorescence lifetime (in C1CCOC1): 0.42 ns

CCN(CC)c1cccc(C=O)c1
fluorescence lifetime (in CC#N): 11.7 ns | fluorescence lifetime (in CC(C)O): 1.47 ns | fluorescence lifetime (in CCCCCC): 5.95 ns | fluorescence lifetime (in CCOC(C)=O): 14.3 ns | fluorescence lifetime (in CS(C)=O): 21.9 ns | fluorescence lifetime (in Cc1ccccc1): 16.2 ns | fluorescence lifetime (in ClCCl): 26.6 ns

Brc1ccc(-c2nc(-c3ccc(-c4nc(-c5ccc(Br)cc5)c(-c5ccc(Br)cc5)[nH]4)cc3)[nH]c2-c2ccc(Br)cc2)cc1
fluorescence lifetime (in CS(C)=O): 0.55 ns

c1ccc(-c2nc(-c3ccc(-c4nc(-c5ccccc5)c(-c5ccccc5)[nH]4)cc3)[nH]c2-c2ccccc2)cc1
fluorescence lifetime (in CC#N): 1.11 ns | fluorescence lifetime (in CS(C)=O): 1.05 ns

c1ccc(-c2nnc(-c3ccc(N4c5ccccc5N(c5ccccc5)c5ccccc54)cc3)o2)cc1
fluorescence lifetime (in Cc1ccccc1): 9 ns | fluorescence lifetime (in c1cc(-n2c3ccccc3c3ccccc32)cc(-n2c3ccccc3c3ccccc32)c1): 7 ns

Cc1ccc(-c2cc(-c3ccc(N(C)C)cc3)c3c(N)nc(N4CCCC4)c(C#N)c3n2)cc1
fluorescence lifetime (in CC#N): 7.3 ns | fluorescence lifetime (in CC(C)=O): 10.3 ns | fluorescence lifetime (in CC(C)O): 11.2 ns | fluorescence lifetime (in CO): 3.6 ns | fluorescence lifetime (in ClC(Cl)Cl): 11.5 ns | fluorescence lifetime (in ClCCl): 12.6 ns | fluorescence lifetime (in c1ccccc1): 10.7 ns

CCCCCCCCn1c(=O)c2cc3cc4cc5c(=O)n(CCCCCCCC)c(=O)c5cc4c(C#Cc4ccc(N(c5ccccc5)c5ccccc5)cc4)c3cc2c1=O
fluorescence lifetime (in ClC(Cl)Cl): 4.2 ns

CCN(CC)c1ccc2cc(C#N)/c(=N\C(=O)c3ccco3)oc2c1
fluorescence lifetime (in ClCCl): 3 ns

C#CCn1c2ccccc2c2cc(/C=C/c3cc(C)c4n3[B-](F)(F)[N+]3=C(C)C=C(C)C3=C4c3ccc(I)cc3)ccc21
fluorescence lifetime (in CC#N): 4.03 ns | fluorescence lifetime (in CS(C)=O): 3.64 ns | fluorescence lifetime (in ClC(Cl)Cl): 3.93 ns

COc1ccc(-c2cc(C)nc(-c3ccc(-n4c5ccccc5c5ccccc54)cc3)n2)cc1
fluorescence lifetime (in C1CCOC1): 2.56 ns | fluorescence lifetime (in CN(C)C=O): 5.31 ns | fluorescence lifetime (in Cc1ccccc1): 1.21 ns | fluorescence lifetime (in ClC(Cl)Cl): 2.97 ns

CCCCc1cc(CCCC)c2ccc3c(CCCC)cc(CCCC)c4ccc1c2c43
fluorescence lifetime (in CCCCCC): 65.8 ns | fluorescence lifetime (in CO): 75 ns | fluorescence lifetime (in ClCCl): 56.7 ns

CN(C)c1ccc(-c2ccc(-c3nc(C#N)c(C#N)n3C)cc2)cc1
fluorescence lifetime (in C1CCCCC1): 1 ns | fluorescence lifetime (in ClC(Cl)Cl): 2 ns

CC(C)(C)c1ccc2c(c1)c1cc(C(C)(C)C)ccc1n2-c1cc(C(=O)c2ccccn2)cc(-n2c3ccc(C(C)(C)C)cc3c3cc(C(C)(C)C)ccc32)c1
fluorescence lifetime (in c1cc(-c2cccc(-n3c4ccccc4c4ccccc43)c2)cc(-n2c3ccccc3c3ccccc32)c1): 5.3 ns
